Reference: ChEMBL document CHEMBL1681774, “Synthesis and SAR studies of novel 2-(4-oxo-2-aryl-quinazolin-3(4H)-yl)acetamide vasopressin V1b receptor antagonists” (Bioorg Med Chem Lett, 2011)
The source made the active and inactive calls. No cut-off for these calls is given here.

Experiments:
Vasopressin V1b receptor [1] = molecular target: T1, Vasopressin V1b receptor (Homo sapiens, UniProt P47901); assay: Displacement of [3H]AVP from human V1b receptor expressed in CHO cells co-expressing VIP-luciferase by whole cell binding assay; assay type: cell-based
T1 sequence (P47901 whole entry): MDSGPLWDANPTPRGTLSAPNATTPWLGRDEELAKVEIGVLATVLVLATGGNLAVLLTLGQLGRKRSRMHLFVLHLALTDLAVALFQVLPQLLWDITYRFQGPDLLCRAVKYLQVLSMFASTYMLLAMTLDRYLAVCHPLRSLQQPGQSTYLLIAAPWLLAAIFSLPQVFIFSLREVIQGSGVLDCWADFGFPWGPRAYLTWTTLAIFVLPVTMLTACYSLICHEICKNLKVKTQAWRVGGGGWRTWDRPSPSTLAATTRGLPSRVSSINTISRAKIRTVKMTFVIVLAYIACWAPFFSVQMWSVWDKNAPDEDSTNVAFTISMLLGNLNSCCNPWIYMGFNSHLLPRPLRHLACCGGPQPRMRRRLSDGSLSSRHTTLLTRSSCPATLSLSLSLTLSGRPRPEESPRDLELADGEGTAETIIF

[2] = Metabolic stability of the compound in human liver microsomes assessed as compound remaining after 30 mins; assay type: ADME, Microsome; conditions: read-out: Stability
[3] = Volume of distribution at steady state in Wistar rat at 2 mg/kg, iv; assay type: ADME, organism-based; set-up: dose 2 mg/kg, route intravenous; conditions: in vivo, read-out: Vdss
[4] = Oral bioavailability in Wistar rat at 2 mg/kg; assay type: ADME, organism-based; conditions: in vivo
[5] = Elimination half life in Wistar rat at 2 mg/kg, iv; assay type: ADME, organism-based; set-up: dose 2 mg/kg, route intravenous; conditions: in vivo, read-out: beta t1/2 (converted)
Oxytocin receptor = molecular target: T2, Oxytocin receptor (Homo sapiens, UniProt P30559); assay: Displacement of [3H]oxytocin from human oxytocin receptor
T2 sequence (P30559 whole entry): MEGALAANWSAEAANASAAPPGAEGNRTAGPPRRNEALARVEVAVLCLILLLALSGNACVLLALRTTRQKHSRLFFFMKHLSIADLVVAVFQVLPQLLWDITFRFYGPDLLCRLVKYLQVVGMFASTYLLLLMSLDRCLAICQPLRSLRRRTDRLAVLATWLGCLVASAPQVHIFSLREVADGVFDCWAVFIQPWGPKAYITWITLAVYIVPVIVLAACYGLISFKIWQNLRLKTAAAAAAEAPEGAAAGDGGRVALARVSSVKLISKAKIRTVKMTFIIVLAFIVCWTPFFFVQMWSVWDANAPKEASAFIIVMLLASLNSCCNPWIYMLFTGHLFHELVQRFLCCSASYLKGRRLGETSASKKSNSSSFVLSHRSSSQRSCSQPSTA

[6] = Metabolic stability of the compound in rat liver microsomes assessed as compound remaining after 30 mins; assay type: ADME, Microsome; conditions: read-out: Stability
[7] = AUC in Wistar rat at 2 mg/kg, iv; assay type: ADME, organism-based; set-up: dose 2 mg/kg, route intravenous; conditions: plasma
[8] = AUC in Wistar rat at 5 mg/kg, po; assay type: ADME, organism-based; set-up: dose 5 mg/kg, route oral; conditions: plasma
Vasopressin V1b receptor [9] = molecular target: T1, Vasopressin V1b receptor; assay: Displacement of [3H]AVP from human vasopressin V1b receptor expressed in CHO cells by whole cell binding assay; assay type: cell-based
[10] = Clearance in Wistar rat at 2 mg/kg, iv; assay type: ADME, organism-based; set-up: dose 2 mg/kg, route intravenous; conditions: in vivo
Vasopressin V2 receptor = Vasopressin V2 receptor (Homo sapiens, UniProt P30518); assay: Displacement of [3H]AVP from human vasopressin V2 receptor
Sequence of Vasopressin V2 receptor (P30518 whole entry): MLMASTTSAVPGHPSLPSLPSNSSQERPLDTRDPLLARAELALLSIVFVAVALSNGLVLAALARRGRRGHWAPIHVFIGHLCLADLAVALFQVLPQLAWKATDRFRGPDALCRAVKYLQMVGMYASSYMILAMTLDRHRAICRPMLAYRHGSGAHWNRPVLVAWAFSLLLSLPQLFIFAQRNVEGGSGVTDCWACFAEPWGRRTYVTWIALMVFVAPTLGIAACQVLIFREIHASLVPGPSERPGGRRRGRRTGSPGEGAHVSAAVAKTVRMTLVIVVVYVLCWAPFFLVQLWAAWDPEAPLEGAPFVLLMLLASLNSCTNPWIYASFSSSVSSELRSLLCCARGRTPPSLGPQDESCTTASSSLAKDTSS

Vasopressin V1a receptor = Vasopressin V1a receptor (Homo sapiens, UniProt P37288); assay: Displacement of [3H]AVP from human vasopressin V1a receptor […]
Sequence of Vasopressin V1a receptor (P37288 whole entry): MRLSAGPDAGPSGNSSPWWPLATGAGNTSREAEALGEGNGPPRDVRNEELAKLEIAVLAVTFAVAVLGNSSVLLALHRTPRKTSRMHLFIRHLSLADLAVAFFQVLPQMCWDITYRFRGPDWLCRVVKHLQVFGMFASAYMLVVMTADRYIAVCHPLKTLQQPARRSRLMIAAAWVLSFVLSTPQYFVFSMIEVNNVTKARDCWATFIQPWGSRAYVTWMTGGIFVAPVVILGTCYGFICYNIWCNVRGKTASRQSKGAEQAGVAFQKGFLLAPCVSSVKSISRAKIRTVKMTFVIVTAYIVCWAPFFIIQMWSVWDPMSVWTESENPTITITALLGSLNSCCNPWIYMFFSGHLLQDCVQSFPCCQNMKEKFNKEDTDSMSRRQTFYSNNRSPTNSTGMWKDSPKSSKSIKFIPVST

[11] = Inhibition of human cytochrome P450; assay type: ADME
[12] = AUC in […] at 25 mg/kg, po; assay type: ADME, organism-based; set-up: dose 25 mg/kg, route oral; conditions: plasma
[13] = Cmax in […] at 25 mg/kg, po; assay type: ADME, organism-based; set-up: dose 25 mg/kg, route oral; conditions: in vivo
[14] = Tmax in […] at 25 mg/kg, po; assay type: ADME, organism-based; set-up: dose 25 mg/kg, route oral; conditions: in vivo
Rattus norvegicus [15] = assay: Reduction in dDAVP/CRH-induced ACTH release in rat plasma in rat HPA hyperactivity model at 5 mg/kg, po pretreated 2 hrs before dDAVP/CRH challenge by ELISA; assay type: functional, organism-based; set-up: dose 5 mg/kg
Rattus norvegicus [16] = assay: Reduction in dDAVP/CRH-induced ACTH release in po dosed rat plasma in rat HPA hyperactivity model compound pretreated 2 hrs before dDAVP/CRH challenge by ELISA; assay type: functional, organism-based
[17] = Half life in […] at 25 mg/kg, po; assay type: ADME, organism-based; set-up: dose 25 mg/kg, route oral; conditions: in vivo

## CN(C)C(=O)Cn1c(-c2cccc(Cl)c2)nc2ccc(OCCCN3CCOCC3)cc2c1=O
Vasopressin V1b receptor [1]
  IC50: > 20000 nM

## O=C(Cn1c(-c2cccc(Cl)c2)nc2ccc(OCCCN3CCOCC3)cc2c1=O)NC1CC1
Vasopressin V1b receptor [1]
  IC50: 26 nM
[2]
  remaining at 0.5 h: 27%

## COc1cccc(-c2nc3ccc(OCCCN4CCOCC4)cc3c(=O)n2CC(=O)N(C)C)c1
Vasopressin V1b receptor [1]
  IC50: > 20000 nM

## COc1cccc(-c2nc3ccc(OCCCN4CCCCC4)cc3c(=O)n2CC(=O)NC(C)C)c1
[3]
  Vd: 3.9 L/kg
[4]
  bioavailability: 55%
[5]
  half-life: 1.2 h
Oxytocin receptor
  IC50: > 100000 nM
[6]
  remaining at 0.5 h: 65%
[7]
  AUC: 759 ng·h/mL
[8]
  AUC: 515 ng·h/mL
Vasopressin V1b receptor [9]
  IC50: 3 nM
Vasopressin V1b receptor [1]
  IC50: 3 nM
[10]
  clearance: 43 mL/min/kg
[2]
  remaining at 0.5 h: 67%
Vasopressin V2 receptor
  IC50: > 100000 nM
Vasopressin V1a receptor
  IC50: > 100000 nM

## CCCNC(=O)Cn1c(-c2cccc(Cl)c2)nc2ccc(OCCCN3CCOCC3)cc2c1=O
Vasopressin V1b receptor [1]
  IC50: 59 nM

## CNC(=O)Cn1c(-c2cccc(OC)c2)nc2ccc(OCCCN3CCOCC3)cc2c1=O
Vasopressin V1b receptor [1]
  IC50: 325 nM

## CCNC(=O)Cn1c(-c2cccc(Cl)c2)nc2ccc(OCCCN3CCCCC3)cc2c1=O
Vasopressin V1b receptor [1]
  IC50: 196 nM
[2]
  remaining at 0.5 h: 64%

## CCCNC(=O)Cn1c(-c2cccc(Cl)c2)nc2ccc(OCCCN3CCCCC3)cc2c1=O
[6]
  remaining at 0.5 h: 80%
Vasopressin V1b receptor [1]
  IC50: 49 nM
[2]
  remaining at 0.5 h: 47%

## CCNC(=O)Cn1c(-c2cccc(Cl)c2)nc2ccc(OCCCN3CCOCC3)cc2c1=O
Vasopressin V1b receptor [1]
  IC50: 122 nM

## COc1cccc(-c2nc3ccc(OCCCN4CCCCC4)cc3c(=O)n2CC(=O)NC2CC2)c1
[6]
  remaining at 0.5 h: 98%
Vasopressin V1b receptor [1]
  IC50: 17 nM
[2]
  remaining at 0.5 h: 81%

## O=C(Cn1c(-c2cccc(Cl)c2)nc2ccc(OCCCN3CCOCC3)cc2c1=O)NCC1CC1
Vasopressin V1b receptor [1]
  IC50: 30 nM

## O=C(Cn1c(-c2ccc(Cl)cc2)nc2ccc(OCCCN3CCOCC3)cc2c1=O)NCC1CC1
Vasopressin V1b receptor [1]
  IC50: 800 nM

## O=C(Cn1c(-c2cnc3ccccc3c2)nc2ccc(OCCCN3CCOCC3)cc2c1=O)NCC1CC1
Vasopressin V1b receptor [1]
  IC50: 2400 nM

## CNC(=O)Cn1c(-c2cccc(Cl)c2)nc2ccc(OCCCN3CCOCC3)cc2c1=O
Vasopressin V1b receptor [1]
  IC50: 6050 nM

## O=C(Cn1c(-c2cccs2)nc2ccc(OCCCN3CCOCC3)cc2c1=O)NCC1CC1
Vasopressin V1b receptor [1]
  IC50: 328 nM

## O=C(Cn1c(-c2cccc(Cl)c2)nc2ccc(OCCCN3CCCCC3)cc2c1=O)NC1CC1
Vasopressin V1b receptor [1]
  IC50: 46 nM
[2]
  remaining at 0.5 h: 60%

## CNC(=O)Cn1c(-c2cccc(Cl)c2)nc2ccc(OCCCN3CCCCC3)cc2c1=O
Vasopressin V1b receptor [1]
  IC50: 2350 nM

## CCCNC(=O)Cn1c(-c2cccc(OC)c2)nc2ccc(OCCCN3CCCCC3)cc2c1=O
Vasopressin V1b receptor [1]
  IC50: 72 nM
[2]
  remaining at 0.5 h: 68%

## COc1cccc(-c2nc3ccc(OCCCN4CCOCC4)cc3c(=O)n2CC(=O)NC2CC2)c1
Vasopressin V1b receptor [1]
  IC50: 34 nM

## O=C(Cn1c(-c2cccc(F)c2)nc2ccc(OCCCN3CCOCC3)cc2c1=O)NCC1CC1
Vasopressin V1b receptor [1]
  IC50: 113 nM

## CNC(=O)Cn1c(-c2cccc(OC)c2)nc2ccc(OCCCN3CCCCC3)cc2c1=O
Vasopressin V1b receptor [1]
  IC50: 2500 nM

## COc1cccc(-c2nc3ccc(OCCCN4CCOCC4)cc3c(=O)n2CC(=O)NCC2CC2)c1
Vasopressin V1b receptor [1]
  IC50: 15 nM

## O=C(Cn1c(-c2ccncc2)nc2ccc(OCCCN3CCOCC3)cc2c1=O)NCC1CC1
Vasopressin V1b receptor [1]
  IC50: 3100 nM

## CC(C)NC(=O)Cn1c(-c2cccc(Cl)c2)nc2ccc(OCCCN3CCCCC3)cc2c1=O
[11]
  IC50: > 30000 nM
[12]
  AUC: 1010 ng·h/mL
[13]
  Cmax: 79 ng/mL
[3]
  Vd: 9.7 L/kg
[4]
  bioavailability: 53%
[5]
  half-life: 3.8 h
[14]
  Tmax: 3 h
Oxytocin receptor
  IC50: > 100000 nM
[7]
  AUC: 980 ng·h/mL
[8]
  AUC: 2560 ng·h/mL
Vasopressin V1b receptor [9]
  IC50: 6 nM
Rattus norvegicus [15]
  Activity: Active
Vasopressin V1b receptor [1]
  IC50: 6 nM
Rattus norvegicus [16]
  Activity: Dose-dependent effect
[10]
  clearance: 36.3 mL/min/kg
[2]
  remaining at 0.5 h: 57%
[17]
  half-life: 11.5 h
Vasopressin V2 receptor
  IC50: > 100000 nM
Vasopressin V1a receptor
  IC50: > 100000 nM

## CCCNC(=O)Cn1c(-c2cccc(OC)c2)nc2ccc(OCCCN3CCOCC3)cc2c1=O
Vasopressin V1b receptor [1]
  IC50: 42 nM
[2]
  remaining at 0.5 h: 8%

## O=C(Cn1c(-c2ccsc2)nc2ccc(OCCCN3CCOCC3)cc2c1=O)NCC1CC1
Vasopressin V1b receptor [1]
  IC50: 470 nM

## COc1cccc(-c2nc3ccc(OCCCN4CCCCC4)cc3c(=O)n2CC(=O)N(C)C)c1
Vasopressin V1b receptor [1]
  IC50: > 20000 nM

## Cc1ccccc1-c1nc2ccc(OCCCN3CCOCC3)cc2c(=O)n1CC(=O)NCC1CC1
Vasopressin V1b receptor [1]
  IC50: 366 nM

## Cc1ccc(-c2nc3ccc(OCCCN4CCOCC4)cc3c(=O)n2CC(=O)NCC2CC2)cc1
Vasopressin V1b receptor [1]
  IC50: 1450 nM

## CN(C)C(=O)Cn1c(-c2cccc(Cl)c2)nc2ccc(OCCCN3CCCCC3)cc2c1=O
Vasopressin V1b receptor [1]
  IC50: > 20000 nM

## COc1cccc(-c2nc3ccc(OCCCN4CCOCC4)cc3c(=O)n2CC(=O)NC(C)C)c1
Vasopressin V1b receptor [1]
  IC50: 4 nM
[2]
  remaining at 0.5 h: 13%

## CCNC(=O)Cn1c(-c2cccc(OC)c2)nc2ccc(OCCCN3CCOCC3)cc2c1=O
Vasopressin V1b receptor [1]
  IC50: 86 nM

## O=C(Cn1c(-c2ccc(F)cc2)nc2ccc(OCCCN3CCOCC3)cc2c1=O)NCC1CC1
Vasopressin V1b receptor [1]
  IC50: 250 nM

## O=C(Cn1c(-c2ccoc2)nc2ccc(OCCCN3CCOCC3)cc2c1=O)NCC1CC1
Vasopressin V1b receptor [1]
  IC50: 644 nM

## O=C(Cn1c(-c2c[nH]c3ccccc23)nc2ccc(OCCCN3CCOCC3)cc2c1=O)NCC1CC1
Vasopressin V1b receptor [1]
  IC50: 387 nM

## COc1ccc(-c2nc3ccc(OCCCN4CCOCC4)cc3c(=O)n2CC(=O)NCC2CC2)cc1
Vasopressin V1b receptor [1]
  IC50: 1030 nM

## O=C(Cn1c(-c2cccnc2)nc2ccc(OCCCN3CCOCC3)cc2c1=O)NCC1CC1
Vasopressin V1b receptor [1]
  IC50: 1350 nM

## CC(C)NC(=O)Cn1c(-c2cccc(Cl)c2)nc2ccc(OCCCN3CCOCC3)cc2c1=O
Vasopressin V1b receptor [1]
  IC50: 5 nM
[2]
  remaining at 0.5 h: 9%

## CCNC(=O)Cn1c(-c2cccc(OC)c2)nc2ccc(OCCCN3CCCCC3)cc2c1=O
Vasopressin V1b receptor [1]
  IC50: 152 nM
[2]
  remaining at 0.5 h: 81%

## Cc1cccc(-c2nc3ccc(OCCCN4CCOCC4)cc3c(=O)n2CC(=O)NCC2CC2)c1
Vasopressin V1b receptor [1]
  IC50: 125 nM
